Measured values published in US20030064895A1, “Genes for s-adenosyl l-methionine: jasmonic acid carboxyl methyltransferase and a method for the development of pathogen-and stress-resistant plants using the genes” (priority 2000, published 2003).
“Also recorded” adds a separate entry of the source.

Key:
JMT enzyme (GST-JMT) = molecular target: T1, JMT enzyme (GST-JMT) (Arabidopsis thaliana, UniProt Q9AR07); assay: Substrate specificity of fusion enzyme protein GST-JMT with SAM / [14C]SAM; format: biochemical; conditions: reaction with JA defined to be 100%
T1 construct: it could be noted that this selected cDNA clone is a full-length cDNA clone; made in house; host or cells: E. coli BL21 (pGEX-2T, plasmid pGST-JMT)
T1 sequence (Q9AR07 1-389): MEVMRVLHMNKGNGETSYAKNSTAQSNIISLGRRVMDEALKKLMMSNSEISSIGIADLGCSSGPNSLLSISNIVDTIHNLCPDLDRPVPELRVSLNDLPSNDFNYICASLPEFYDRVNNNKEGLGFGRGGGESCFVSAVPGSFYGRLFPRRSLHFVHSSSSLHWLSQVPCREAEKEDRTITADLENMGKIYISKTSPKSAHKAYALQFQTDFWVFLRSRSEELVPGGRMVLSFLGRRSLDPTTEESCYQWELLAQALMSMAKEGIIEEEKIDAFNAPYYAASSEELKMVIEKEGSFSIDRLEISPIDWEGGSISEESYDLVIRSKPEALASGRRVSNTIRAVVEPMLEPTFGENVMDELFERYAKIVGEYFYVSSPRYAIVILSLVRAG

[1] = molecular target: T2, jasmonic acid carboxyl methyltransferase (Arabidopsis thaliana, UniProt Q9AR07); assay: Kinetic parameters of recombinant JMT protein (Lineweaver-Burk plot); format: biochemical; conditions: named substance as substrate of recombinant JMT; for Km: SAM and JA as substrates
T2 construct: it could be noted that this selected cDNA clone is a full-length cDNA clone; made in house; host or cells: E. coli BL21 (pGEX-2T, plasmid pGST-JMT)
T2 sequence (Q9AR07 1-389): T1 sequence (Q9AR07 1-389)

[2] = tested on: pathogens belonging to Phytium genus; conditions: treatment at the level of 130 μM; cited from earlier work

Compound	reactivity as methyl acceptor substrate of JMT enzyme (JMT enzyme (GST-JMT))	Kcat [1] [s⁻¹]	Vm [1] [nmol/min]	Km [1] [µM]	effect on the growth of pathogen [2]
O=C(O)c1ccccc1O [SA, salicylic acid]	substantially not react; also recorded: substantially not proceeded	–	–	–	–
O=C(O)c1ccccc1 [BA, benzoic acid]	substantially not react; also recorded: substantially not proceeded	–	–	–	–
S-adenosyl methionine [SAM]	–	70	84	6.3	–
jasmonic acid [(±)JA]	high reactivity	15	30	38.5	no effect
